According to patent US11286263B2, “Macrocyclic fluorine substituted indole derivatives” (The Broad Institute, Inc., priority 2017, dated 2022):
Counter-ions that a name gives are not always drawn. Like-named read-outs stand apart in the source and are kept apart here.

Experiments:
[1] = system: SK-BR-3; assay: Antiproliferation assay SK-BR-3 (Assay 7); assay type: cell-based; conditions: SK-BR-3 cells, CellTiter-Glo, single determinations, read-out: IC50 Antiproli SK-BR-3
Protocol: (§1) Assessment of the Anti-Proliferative Effect of Compounds in Different Cell Lines
(§2) The impact of compounds on the proliferation of different cell lines was assessed using the CellTiter-Glo® Luminescent Cell Viability reagent from Promega (G7573).
(§3) In parallel, cells were plated in a reference (day 0) plate for time zero determination.
(§4) Rim wells were excluded. The cells were incubated for 72 h hours in a humidified incubator at 37° C. The day 0 plate was measured by adding 30 μL/well of CTG solution (CellTiter-Glo® Luminescent Cell Viability reagent, Promega G7573) to time zero wells in the reference plate followed by a 10 minutes incubation and luminescence reading at 0.1 ms. using the PHERAstar FS microplate reader (BMG Labtech).
(§5) After 72 h incubation, the treated plates were measured in the same way as the day 0 plate mentioned above.

[2] = system: A2058; assay: Antiproliferation assay A2058 (Assay 7); assay type: cell-based; conditions: Homo sapiens; A2058 cells, 72 h, CellTiter-Glo; single determinations; read-out: IC50 Antiproli A2058
Protocol: as §1, §2, §3, §4, §5

[3] = system: NCI-H23; assay: Antiproliferation assay NCI-H23 (Assay 7); assay type: cell-based; conditions: NCI-H23 cells, CellTiter-Glo, single determinations, read-out: IC50 Antiproli NCI-H23
Protocol: as §1, §2, §3, §4, §5

[4] = system: SUDHL5
Protocol: In principle, compounds that induce apoptosis will concomitantly induce cell cytotoxicity. Therefore, cytotoxicity assays were run in parallel in SUDHL5 and SUDHL10 cells.
The different cell lines were plated in culture medium (RPMI 1640 [GIBCO #22400-089] supplemented with 10% Fetal Bovine Serum) at a density of 3,300 cells in 30 μl/well in a sterile, solid black, flat bottom, polystyrene, TC-treated 384-well microplate (Corning #3571) using Multidrop Combi Reagent Dispenser. As a control, medium without cells was also added to the plate. Cells were incubated in a humidified incubator at 37° C. overnight. On the next day, the cells were treated with compounds (stock solution, 10 mM in DMSO) using the HP D300 Digital Dispenser in a concentration range of 3.3×10e-5 M (33 μM) to 5×10e-9 M (5 nM) in a single-dot curve with at least 16 dilutions and a DMSO concentration of 0.33%. Rim wells were excluded. The cells were incubated for 5 h hours in a humidified incubator at 37° C. After this incubation, 30 μl of CellTiter-Glo® Luminescent Cell Viability reagent (Promega, G7573) was added to each well using the Multidrop Combi Reagent Dispenser, followed by 15 min incubation on a shaker at room temperature. Finally, luminescence was read at 0.1 ms, with a gain of 3000 using the PHERAstar FS microplate reader (BMG Labtech).
The Bella DRC Master Sheet was used to calculate IC50s, with fixed CI=0 and C0=1.

[5] = system: SUDHL10
[6] = system: BxPC-3; assay: Antiproliferation assay BxPC-3 (Assay 7); assay type: cell-based; conditions: Homo sapiens; BxPC-3 cells, 72 h, CellTiter-Glo; single determinations; read-out: IC50 Antiproli BxPC-3
Protocol: as §1, §2, §3, §4, §5

IC50 ([1]; Homo sapiens, SK-BR-3, 72 h)	IC50 ([3]; Homo sapiens, NCI-H23, 72 h)	Compound	IC50 [2]	other results
9.5 µM	6.94 µM	Cc1c2c(nn1C)COCCCCn1c(C(=O)O)c(CCCOc3cccc4ccccc34)c3ccc(F)c-2c31 (single isomer, unassigned; enantiomer 1) [Example 3, 4-fluoro-2,3-dimethyl-7-[3-(naphthalen-1-yloxy)propyl]-2,10,11,12,13,15-hexahydropyrazolo-[4′,3′:9,10][1,6]oxazacycloundecino[8,7,6-hi]indole-8-carboxylic acid-N-ethylethanamine salt (enantiomer 1)]	> 33 µM	–
–	–	(rac)-1-(3-((2,3-dihydro-1H-inden-4-yl)oxy)propyl)-12-ethyl-13-fluoro-11-methyl-4,5,6,7,9,11-hexahydropyrazolo[4′,3′:9,10][1]oxa[6]azacycloundecino[8,7,6-hi]indole-2-carboxylic acid [Example 30]	–	IC50 [4]: 1.1 µM; IC50 [5]: 1.3 µM
–	–	CCc1c2c(nn1C)COCCCCn1c(C(=O)O)c(CCCOc3cccc4cc(F)ccc34)c3ccc(F)c-2c31 (single isomer, unassigned; enantiomer 1) [Example 22, 3-ethyl-4-fluoro-7-{3-[(6-fluoronaphthalen-1-yl)oxy]propyl}-2-methyl-2,10,11,12,13,15-hexahydropyrazolo[4′,3′:9,10][1,6]oxazacycloundecino[8,7,6-hi]indole-8-carboxylic acid-N-ethylethanamine salt (enantiomer 1)]	–	IC50 [6]: 23.5 µM
7.07 µM	7.56 µM	Cc1c2c(nn1C)COCCCCn1c(C(=O)O)c(CCCOc3cccc4ccccc34)c3ccc(F)c-2c31 (racemic) [Example 2, (rac)-4-fluoro-2,3-dimethyl-7-[3-(naphthalen-1-yloxy)propyl]-2,10,11,12,13,15-hexahydro-pyrazolo[4′,3′:9,10][1,6]oxazacycloundecino[8,7,6-hi]indole-8-carboxylic acid]	> 33 µM	IC50 ([1]; 72 h, listed as 02): 6.85 µM; IC50 ([3]; 72 h, listed as 02): 9.56 µM
